As a reminder, the EC50 is the concentration needed to bring the measured effect to its halfway point.

The source of these data is US5607836A, “Methods of detecting compounds which bind to the P2U receptor” (The Curators of the University of Missouri, priority 1995, dated 1997).

Test [1] deals with T1, murine P2U receptor (Mus musculus, UniProt P35383). Set-up: host or cells: Xenopus oocytes. Particulars: Lustig et al. 1993, cited from earlier work; for stimulation of ^45 Ca^2+ efflux in oocytes: oocytes expressing the cloned receptor.
T1 sequence (P35383 whole entry): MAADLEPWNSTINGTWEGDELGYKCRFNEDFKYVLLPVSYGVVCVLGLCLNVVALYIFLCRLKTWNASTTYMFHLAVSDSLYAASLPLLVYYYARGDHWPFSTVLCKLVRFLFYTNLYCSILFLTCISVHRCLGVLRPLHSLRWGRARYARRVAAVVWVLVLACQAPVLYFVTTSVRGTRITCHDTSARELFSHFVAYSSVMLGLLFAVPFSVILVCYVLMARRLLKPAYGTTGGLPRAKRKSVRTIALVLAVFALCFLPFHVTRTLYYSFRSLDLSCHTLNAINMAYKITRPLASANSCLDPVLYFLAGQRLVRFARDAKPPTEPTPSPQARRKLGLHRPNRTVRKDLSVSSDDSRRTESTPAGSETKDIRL
The target in test [2] is T1, murine P2U receptor. Nature of the test: cytoplasmic free calcium (fura-2) in K562 cells transfected with P2U receptor cDNA. Particulars: for effect on [Ca^2+ ]i in stable transfectants / prevention of ATP-mediated increases in [Ca^2+ ]i (antagonism): concentrations as high as 1 mM, stable transfectants. The class given is cell-based. Set-up: missing the first 6 nucleotides of the 5' untranslated region of the full length cDNA; expressed in transfected cells; host or cells: K562 human leukemia cells. The source says:
(§1) Stable and Transient Transfections. To generate stable transfectants expressing the P2U receptor, K562 cells were transfected by electroporation (F. Toneguzzo et al., Mol. Cell. Biol. 6, 703 (1986)) with the neomycin-resistance plasmid pP2R1. pP2R1 is pRc/CMV containing a ~2.4 kb HindIII-NotI fragment of the P2U receptor cDNA, missing the first 6 nucleotides of the 5' untranslated region of the full length cDNA. control cells were stably transfected with pRc/CMV. Cells were sedimented at 200×g for 5 min at room temperature, rinsed once with phosphate-buffered saline (10 mM NaH2 PO4, pH 7.4, 120 mM NaCl, 5 mM KCl), and resuspended in phosphate-buffered saline at a final concentration of 4×10^7 cells/ml. The cells were chilled on ice for 10 min and then transferred in 0.5 ml aliquots to prechilled electroporation cuvettes. DNA (40 μg of pP2R1 linearized with PvuI) was added to the cell suspension, the cells were subjected to a single electrical pulse (1 kV, 25 μF) and the cuvettes were placed on ice. After 10 min, growth medium was added and the cells were incubated at 37° C. Fresh growth medium supplemented with 0.7 mg/ml G418 was added 48 h […], and the cells were incubated for 2 weeks to select for stable transfectants expressing neomycin resistance. Clonal cell lines were then isolated by transferring single cells to individual wells of a 96-well culture plate: each well contained 0.2 ml of conditioned growth medium filtered from K562 stock cultures, 0.2 ml of fresh growth medium, and 0.4 mg/ml G418. The clonal cell lines were cultured for three to four weeks in growth medium containing 0.4 mg/ml G418 and assayed for P2U receptor, the results shown are from one representative clonal cell line.
To generate transient transfectants, K562 cells were transfected as above with 40 μg unlinearized plasmid pCCM6×1 or pP2R (Lustig et al., supra 1993). Cells were incubated for 48 h at 37° C. in 100 mm culture dishes containing 12 ml of growth medium and assayed for P2U receptor activity.
(§2) Cytoplasmic Free Calcium Measurements. Cells were sedimented at 200×g for 5 min at room temperature and washed once with 10 ml of Hepes-bufferedsaline (20 mM Hepes, pH 7.4, 120 mM NaCl, 5 mM KCl, 1 mM MgCl2, and 1 mM CaCl2). Washed cells were suspended in Hepes-buffered saline at 5×10^5 cells/ml, and stored (for up to 4 h) at 37° C. The concentration of cytoplasmic free calcium, [Ca^2+ ]i, was measured by dual-excitation spectrofluorometric analysis of cells loaded with fura-2, a fluorescent probe for calcium.

In test [3] the target is T2, human P2U receptor (Homo sapiens, UniProt P41231). The test is described as follows: intracellular calcium by fura-2 fluorescence in 1321N1 human astrocytoma cells expressing the cloned HP2U (LHP2USN). The format is cell-based. As to conditions: for efficacy / effect in concentration-effect curves: HP2U clone expressed in 1321N1 cells. The procedure:
(§3) Heteroloqous Expression. A retroviral vector-containing plasmid, pLHP2USN, was constructed by insertion of the cloned CF/T43 cDNA into the EcoRI and XhoI sites of pLXSN (A. Miller and G. Rosman, Biotechniques 7, 980 (1989)). An amphotrophic packaging cell line, PA317, was used to produce the LHP2USN retroviral vector and a control vector containing Neor only (LSN). Clonal human astrocytoma cells 1321N1, UNC strain, generously provided by T. K. Harden (UNC, Chapel Hill, N.C.), were plated at 150,000 cells per 60-mm dish and infected with LHP2USN or LSN (2 hr, 4 ug/ml Polybrene) and after 48 hr selected with 600 ug/ml G418 (Life Technologies, Inc., Gaithersburg, Md., U.S.A.). To assay for receptor activity, intracellular calcium concentration was measured in confluent cells on coverslips by fura-2 fluorescence using microspectrofluorimetry as previously described (S. Mason et al., Br. J. Pharmacol. 103, 1649 (1991)). Measurement of cell inositol phosphate formation was as described by H. Brown et al., Mol. Pharmacol. 40, 648 (1991), in accordance with known techniques.
(§4) A retrovirus expression system was employed to study the cloned CF/T43 HP2U cDNA in 1321N1 human astrocytoma cells. The effect of extracellular nuceotides on intracellular calcium, as measured by fura-2 fluorescence, was assessed in CF/T43 cells, uninfected 1321N1 cells, and 1321N1 cells infected with retroviral vector containing either the cloned HP2U or no insert (LSN).
To examine the pharmacological specifity of the HP2U clone expressed in 1321N1 cells, concentration-effect curves were generated for nucleotides and structural analogues active at P2X, P2Y and P2U receptors (data not shown). […] These concentration-effect relations are very similar to those reported for heterologously expressed murine P2U (Lustig, et al., supra) and virtually indistinguishable from data (not shown) generated for the endogenous CF/T43 and HT-29 receptors. Clearly, the agonist specifities fit the definition of the P2U receptor.
Background: Calcium flux is commonly read through the fluorescence of an indicator in the cells.

Test [4] has as its system P2T receptor of K562 cells. Nature of the test: cytoplasmic free calcium (fura-2) in untransfected or vector-transfected K562 cells. The format is cell-based, human. As to conditions: untransfected K562 cells; for elevation of [Ca^2+ ]i in untransfected K562 cells (P2T receptor): 1 mM for ATP, UTP, ATPγS, BzATP, BzUTP; for effect on [Ca^2+ ]i in untransfected K562 cells: concentrations as high as 1 mM.
Excerpt: as §1, §2

Test [5] relates to 1321N1 human astrocytoma cells (uninfected or LSN-infected). The test is described as follows: intracellular calcium by fura-2 fluorescence in uninfected or LSN-infected 1321N1 control cells. The format is cell-based. As to conditions: uninfected or LSN-infected controls. The procedure: as §3, §4
Test [6] has as its target T2, human P2U receptor. The test is described as follows: inositol phosphate formation in 1321N1 cells expressing LHP2USN. The class given is cell-based. As to conditions: HP2U-1321N1 cells; apyrase in the medium during cell-labeling step. The procedure:
as §3
To test this possibility more directly, we measured inositol phosphate formation. […] We hypothesized that during the lengthy labeling period 1321N1 cells released 5'-nucleotides into the medium in quantities sufficient to "self-activate" the receptor. […] Thus, it appears the cells are persistently stimulated by nucleotides in an autocrine fashion. The mode of release of nucleotides from the astrocytoma cells and the biological consequences of the persistent autocrine activation are unknown. To facilitate comparison with controls, the inositol phosphate studies were performed on cells pretreated with apyrase.

Test [7] addresses T3, P2U receptor of CF/T43 cells (Homo sapiens, UniProt P41231).
T3 construct: fura-2 calcium
Nature of the test: intracellular calcium by fura-2 fluorescence in CF/T43 cells (endogenous receptor). The format is cell-based. Particulars: pretreatment. Here is the method:
as §3, §4

T2 sequence (P41231 whole entry): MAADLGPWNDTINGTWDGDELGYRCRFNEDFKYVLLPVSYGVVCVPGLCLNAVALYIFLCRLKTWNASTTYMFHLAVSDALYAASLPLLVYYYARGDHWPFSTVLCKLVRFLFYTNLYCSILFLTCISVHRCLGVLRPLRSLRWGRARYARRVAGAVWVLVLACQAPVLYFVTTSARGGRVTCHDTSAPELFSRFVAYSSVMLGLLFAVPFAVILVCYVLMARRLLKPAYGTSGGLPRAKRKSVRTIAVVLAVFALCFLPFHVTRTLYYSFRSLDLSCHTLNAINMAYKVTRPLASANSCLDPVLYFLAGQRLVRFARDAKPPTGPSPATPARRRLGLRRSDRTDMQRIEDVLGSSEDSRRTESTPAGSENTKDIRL
T3 sequence (P41231 whole entry): as above

Turning to `CSc1nc(N)c2ncn([C@@H]3O[C@H](COP(=O)(O)OP(=O)(O)OP(=O)(O)O)[C@@H](O)[C@H]3O)c2n1` [2-MeSATP, 2-methylthioATP], the “stimulation of ^45 Ca^2+ efflux in oocytes” value in test [1] is listed as “did not stimulate”. Moreover, the “agonist activity at the P2U receptor” value in test [2] (K562 stable transfectants) is “do not appear to act as agonists of the P2U receptor”. The “efficacy / effect in concentration-effect curves” value in test [3] is reported as “had little effect”. Further, the “elevation of [Ca^2+ ]i in untransfected K562 cells (P2T receptor)” value in test [4] was “elevated [Ca^2+ ]i”.

Regarding `Nc1ncnc2c1ncn2[C@@H]1O[C@H](COP(=O)(O)OP(=O)(O)O)[C@@H](O)[C@H]1O` [ADP], the “stimulation of ^45 Ca^2+ efflux in oocytes” value in test [1] is given as “did not stimulate”. Further, the “agonist activity at the P2U receptor” value in test [2] (K562 stable transfectants) is given as “do not appear to act as agonists of the P2U receptor”. The “elevation of [Ca^2+ ]i in untransfected K562 cells (P2T receptor)” value in test [4] was “elevated [Ca^2+ ]i”.

On to `Nc1ncnc2c1ncn2[C@@H]1O[C@H](COP(=O)(O)O)[C@@H](O)[C@H]1O` [AMP], for which, in test [2], the “effect on [Ca^2+ ]i in stable transfectants” value is “had no effect” and the “prevention of ATP-mediated increases in [Ca^2+ ]i (antagonism)” value (“prevention of ATP-mediated increases” for short) is given as “did not prevent ATP-mediated increases”. Moreover, in test [4], the “effect on [Ca^2+ ]i in untransfected K562 cells” value is “had no effect”.

For the compound `Nc1ncnc2c1ncn2[C@@H]1O[C@H](COP(=O)(O)OP(=O)(O)OP(O)(O)=S)[C@@H](O)[C@H]1O` [ATPγS], the “agonist activity at the P2U receptor in Xenopus oocytes” value in test [1] (Xenopus oocytes) is reported as “relatively potent agonist”. Moreover, the “agonist activity at the P2U receptor” value in test [2] (K562 stable transfectants) is reported as “relatively potent agonist”. Further, in test [2] (K562 stable transfectants, read-out: EC50 for increases in [Ca^2+ ]i), the 50% effective concentration (EC50) was roughly 9.6 µM.

As to `Nc1ncnc2c1ncn2[C@@H]1O[C@H](COP(=O)(O)OP(=O)(O)OP(=O)(O)O)[C@@H](OC(=O)c2ccc(C(=O)c3ccccc3)cc2)[C@H]1O` [BzATP, 3'-O-(4-benzoyl)benzoyl adenosine 5'-triphosphate], the “agonist activity at the P2U receptor” value in test [2] (K562 stable transfectants) was “relatively weak agonists compared to ATP and UTP”.

In the case of `O=C(O[C@H]1[C@@H](O)[C@H](n2ccc(=O)[nH]c2=O)O[C@@H]1COP(=O)(O)OP(=O)(O)OP(=O)(O)O)c1ccc(C(=O)c2ccccc2)cc1` [BzUTP, 3'-O-(4-benzoyl)benzoyl uridine 5'-triphosphate], in test [2] (K562 stable transfectants), the “agonist activity at the P2U receptor” value was “relatively weak agonists compared to ATP and UTP”.

For `Nc1ccn([C@@H]2O[C@H](COP(=O)(O)OP(=O)(O)OP(=O)(O)O)[C@@H](O)[C@H]2O)c(=O)n1` [CTP], in test [2], the “effect on [Ca^2+ ]i in stable transfectants” value is reported as “had no effect” and the “prevention of ATP-mediated increases” value is on record as “did not prevent ATP-mediated increases”. The “effect on [Ca^2+ ]i in untransfected K562 cells” value in test [4] is reported as “had no effect”.

Take `Nc1nc2c(ncn2[C@@H]2O[C@H](COP(=O)(O)OP(=O)(O)OP(=O)(O)O)[C@@H](O)[C@H]2O)c(=O)[nH]1` [GTP]: in test [2], the “effect on [Ca^2+ ]i in stable transfectants” value was “had no effect” and the “prevention of ATP-mediated increases” value was “did not prevent ATP-mediated increases”. For the same compound, the “effect on [Ca^2+ ]i in untransfected K562 cells” value in test [4] is listed as “had no effect”.

On to `Cc1cn([C@H]2C[C@H](O)[C@@H](COP(=O)(O)OP(=O)(O)OP(=O)(O)O)O2)c(=O)[nH]c1=O` [TTP], for which, in test [2], the “effect on [Ca^2+ ]i in stable transfectants” value is on record as “had no effect” and the “prevention of ATP-mediated increases” value was “did not prevent ATP-mediated increases”. The “effect on [Ca^2+ ]i in untransfected K562 cells” value in test [4] is reported as “had no effect”.

For the compound `O=c1ccn([C@@H]2O[C@H](COP(=O)(O)OP(=O)(O)O)[C@@H](O)[C@H]2O)c(=O)[nH]1` [UDP], in test [2], the “effect on [Ca^2+ ]i in stable transfectants” value was “had no effect” and the “prevention of ATP-mediated increases” value is “did not prevent ATP-mediated increases”. Besides, in test [4], the “effect on [Ca^2+ ]i in untransfected K562 cells” value was “had no effect”.

On to `Nc1ncnc2c1ncn2[C@@H]1O[C@H](CO)[C@@H](O)[C@H]1O` [adenosine], for which, in test [2], the “effect on [Ca^2+ ]i in stable transfectants” value is “had no effect” and the “prevention of ATP-mediated increases” value was “did not prevent ATP-mediated increases”. In addition, the “effect on [Ca^2+ ]i in untransfected K562 cells” value in test [4] was “had no effect”.

For the compound `C[N+](C)(C)CCOC(N)=O` [carbachol], in test [5], the “[Ca^2+ ]i response of uninfected or LSN-infected 1321N1 cells” value is listed as “elicited responses in each case”.

With `Nc1ncnc2c1ncn2[C@@H]1O[C@H](COP(=O)(O)CP(=O)(O)OP(=O)(O)O)[C@@H](O)[C@H]1O` [α,β-MeATP], the “efficacy / effect in concentration-effect curves” value in test [3] is “had little effect”.

Regarding `Nc1ncnc2c1ncn2[C@@H]1O[C@H](COP(=O)(O)OP(=O)(O)NP(=O)(O)O)[C@@H](O)[C@H]1O` [β,γ imidoATP], in test [2], the “effect on [Ca^2+ ]i in stable transfectants” value is listed as “had no effect” and the “prevention of ATP-mediated increases” value was “did not prevent ATP-mediated increases”. Besides, the “effect on [Ca^2+ ]i in untransfected K562 cells” value in test [4] was “had no effect”.

`Nc1ncnc2c1ncn2[C@@H]1O[C@H](COP(=O)(O)OP(=O)(O)CP(=O)(O)O)[C@@H](O)[C@H]1O` [β,γ methyleneATP]: in test [2], the “effect on [Ca^2+ ]i in stable transfectants” value is on record as “had no effect” and the “prevention of ATP-mediated increases” value is “did not prevent ATP-mediated increases”. Also, the “effect on [Ca^2+ ]i in untransfected K562 cells” value in test [4] is listed as “had no effect”.

Regarding apyrase, the “baseline inositol phosphate levels” value in test [6] was “reduced the baseline inositol phosphate levels to values near those of controls”.

Regarding pertussis toxin, the “inhibition of ATP-stimulated intracellular Ca^2+ mobilization” value in test [7] was 20-30%; in test [3] (HP2U-1321N1 cells, pretreatment), 20-30%.
